Measured values taken from PubChem BioAssay AID330 (DTP/NCI, 2004).
Several values for one entry are separate records, joined by “and”; a condition that tells them apart may be missing. Equal entries are not always repeated. Toxic doses and inconclusive results are not listed. Rule for the calls: active = survival T/C of 150% or more; inactive = T/C below 125% in these data.

Tested on: P388 leukemia ip, CD2F1 mice, survival T/C
Experiment: NCI In Vivo Anticancer Drug Screen. Data for tumor model P388 Leukemia (intraperitoneal) in CD2F1 (CDF1) mice
Details: endpoint: median survival time, higher = longer survival
Method in brief: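 Mice carrying the transplanted tumor received test compound or vehicle. Survival was recorded in each group, and the value is the treated-group measurement divided by that of the vehicle-treated control group.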

[1] = dose: 50.0 mg/kg/injection, schedule: Q01DX005 (ip), vehicle: Klucel (hydroxypropylcellulose) (HPC)
[2] = dose: 60.0 mg/kg/injection, schedule: Q01DX005 (ip), vehicle: saline with Tween-80
[3] = dose: 50.0 mg/kg/injection, schedule: Q01DX005 (ip), vehicle: saline with Tween-80
[4] = dose: 100.0 mg/kg/injection, schedule: Q01DX005 (ip), vehicle: saline with Tween-80
[5] = dose: 200.0 mg/kg/injection, schedule: Q01DX005 (ip), vehicle: saline with Tween-80

Measured: T/C

CC1(C)C(=O)C(C)(C)C1O[Si](C)(C)OC1C(C)(C)C(=O)C1(C)C
inactive: dose: 100.0 mg/kg/injection, schedule: Q04DX003 (ip), vehicle: Klucel (hydroxypropylcellulose) (HPC) 102 % of control | dose: 200.0 mg/kg/injection, schedule: Q04DX003 (ip), vehicle: Klucel (hydroxypropylcellulose) (HPC) 101 % of control | dose: 400.0 mg/kg/injection, schedule: Q04DX003 (ip), vehicle: Klucel (hydroxypropylcellulose) (HPC) 93 % of control

COc1c(I)c2c(c([N+](=O)[O-])c1OC)C(=O)OC2C1c2c(cc3c(c2OC)OCO3)CCN1C (stereo not given)
inactive: dose: 25.0 mg/kg/injection, schedule: Q01DX005 (ip), vehicle: Klucel (hydroxypropylcellulose) (HPC) 92 % of control | [1] 101 % of control | dose: 100.0 mg/kg/injection, schedule: Q01DX005 (ip), vehicle: Klucel (hydroxypropylcellulose) (HPC) 96 % of control | dose: 200.0 mg/kg/injection, schedule: Q01DX005 (ip), vehicle: Klucel (hydroxypropylcellulose) (HPC) 91 % of control

c1cc(Oc2ccc3ccncc3c2)c2ccncc2c1
inactive: dose: 100.0 mg/kg/injection, schedule: Q01DX001 (ip), vehicle: saline with Tween-80 100 % of control | dose: 200.0 mg/kg/injection, schedule: Q01DX001 (ip), vehicle: saline with Tween-80 100 % of control | dose: 400.0 mg/kg/injection, schedule: Q01DX001 (ip), vehicle: saline with Tween-80 95 % of control

C/C(=N\NC(=S)N1CCN(c2ncccn2)CC1)c1ccccn1
inactive: dose: 6.25 mg/kg/injection, schedule: Q01DX005 (ip), vehicle: saline with Tween-80 119 % of control | dose: 12.5 mg/kg/injection, schedule: Q01DX005 (ip), vehicle: saline with Tween-80 119 % of control

CC(C)(C)c1cc2c(=O)o[s+]3oc(=O)c(c1)c23
inactive: dose: 6.25 mg/kg/injection, schedule: Q01DX009 (ip), vehicle: Klucel (hydroxypropylcellulose) (HPC) 107 % of control | dose: 12.5 mg/kg/injection, schedule: Q01DX009 (ip), vehicle: Klucel (hydroxypropylcellulose) (HPC) 104 % of control | dose: 25.0 mg/kg/injection, schedule: Q01DX009 (ip), vehicle: Klucel (hydroxypropylcellulose) (HPC) 111 % of control

CN(C)Cc1cn(C[Si](C)(C)C)c2ccccc12
inactive: [2] 112 % of control

O=C(Nc1ccc(NC(=O)Nc2cccc(C3=NCCCN3)c2)cc1)Nc1ccc(C2=NCCCN2)cc1
inactive: dose: 2.5 mg/kg/injection, schedule: Q01DX009 (ip), vehicle: saline with Tween-80 113 % of control | dose: 5.0 mg/kg/injection, schedule: Q04DX003 (ip), vehicle: saline with Tween-80 100 % of control | dose: 10.0 mg/kg/injection, schedule: Q04DX003 (ip), vehicle: saline with Tween-80 109 % of control

NS(=O)(=O)c1ccc(Cl)c(Cl)c1
inactive: dose: 100.0 mg/kg/injection, schedule: Q04DX003 (ip), vehicle: saline with Tween-80 90 % of control | dose: 200.0 mg/kg/injection, schedule: Q04DX003 (ip), vehicle: saline with Tween-80 90 % of control | dose: 400.0 mg/kg/injection, schedule: Q04DX003 (ip), vehicle: saline with Tween-80 90 % of control

CCOc1nc(N)nc(C)c1N=Nc1ccccc1OC
inactive: dose: 60.0 mg/kg/injection, schedule: Q01DX005 (ip), vehicle: Klucel (hydroxypropylcellulose) (HPC) 103 % of control | dose: 120.0 mg/kg/injection, schedule: Q01DX005 (ip), vehicle: Klucel (hydroxypropylcellulose) (HPC) 100 % of control | dose: 240.0 mg/kg/injection, schedule: Q01DX005 (ip), vehicle: Klucel (hydroxypropylcellulose) (HPC) 100 % of control

CS(=O)(=O)OC1C(O)C(n2cnc3c(N)ncnc32)C(O)C(OS(C)(=O)=O)C1OS(C)(=O)=O (stereo not given)
inactive: [2] 98 % of control | dose: 120.0 mg/kg/injection, schedule: Q01DX005 (ip), vehicle: saline with Tween-80 95 % of control | dose: 240.0 mg/kg/injection, schedule: Q01DX005 (ip), vehicle: saline with Tween-80 96 % of control

COc1ccc2c(c1)c(CBr)c(C)c[n+]2[O-]
inactive: dose: 6.25 mg/kg/injection, schedule: Q01DX005 (ip), vehicle: Klucel (hydroxypropylcellulose) (HPC) 104 % of control | dose: 12.5 mg/kg/injection, schedule: Q01DX005 (ip), vehicle: Klucel (hydroxypropylcellulose) (HPC) 102 % of control | [1] 86 % of control

CCOC(=O)N1c2ccccc2OC1C#N (stereo not given)
inactive: [3] 99 % of control | [4] 107 % of control | [5] 113 % of control

O=C1NC(c2ccccc2Cl)Nc2ccccc21 (stereo not given)
inactive: dose: 50.0 mg/kg/injection, schedule: Q01DX009 (ip), vehicle: Klucel (hydroxypropylcellulose) (HPC) 94 % of control | dose: 100.0 mg/kg/injection, schedule: Q01DX009 (ip), vehicle: Klucel (hydroxypropylcellulose) (HPC) 92 % of control | dose: 200.0 mg/kg/injection, schedule: Q01DX009 (ip), vehicle: Klucel (hydroxypropylcellulose) (HPC) 95 % of control | dose: 400.0 mg/kg/injection, schedule: Q01DX009 (ip), vehicle: Klucel (hydroxypropylcellulose) (HPC) 90 % of control

CC1N=NNN1C (stereo not given)
inactive: [3] 109 % of control | [4] 109 % of control | [5] 100 % of control

[Cl][Hg][c]1ccccc1N=Nc1ccccc1I
inactive: dose: 12.5 mg/kg/injection, schedule: Q01DX009 (ip), vehicle: saline with Tween-80 101 % of control | dose: 25.0 mg/kg/injection, schedule: Q01DX009 (ip), vehicle: saline with Tween-80 96 % of control | dose: 50.0 mg/kg/injection, schedule: Q01DX009 (ip), vehicle: saline with Tween-80 113 % of control and 98 % of control | dose: 100.0 mg/kg/injection, schedule: Q01DX009 (ip), vehicle: saline with Tween-80 122 % of control and 94 % of control
